Results: patent publication US9480259B2, “Pyrazolopyrans having herbicidal and pharmaceutical properties” (BASF SE, priority 2012, dated 2016)

Biological target: Arabidopsis thaliana SHMT
Assay: SHMT activity assay (ED50 SHMT), coupled with N5,N10-CH2-THF dehydrogenase, NADH at 340 nm
Type: biochemical
Settings: Arabidopsis thaliana SHMT enzyme assay; values given as upper bounds
In short: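 His-tagged SHMT purified on Ni-NTA. NADH formation followed at 340 nm for 30 min; ED50 from inhibition of initial velocity.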

| EC50 [nM] | Compound |
| --- | --- |
| < 100 | Cc1n[nH]c2c1C(c1cc(Cl)cc(Cl)c1)(C(C)(F)F)C(C#N)=C(N)O2 (stereo not drawn) [Compound 2.653] |
| < 100 | Cc1n[nH]c2c1C(c1ccc(CCc3nnn[nH]3)c(-c3nnn[nH]3)c1)(C1CCC1)C(C#N)=C(N)O2 (stereo not drawn) [Compound 2.654] |
| < 10000 | Cc1n[nH]c2c1C(c1cc(CCc3nnn[nH]3)cc(-c3nnn[nH]3)c1)(C1CCC1)C(C#N)=C(N)O2 (stereo not drawn) [Compound 2.655] |
| < 10 | Cc1n[nH]c2c1C(c1cc(C#N)cc(-c3cccc(C(=O)O)c3)c1)(C1(F)COC1)C(C#N)=C(N)O2 (stereo not drawn) [Compound 2.656] |
| < 10 | CCOC(=O)CCCN(C)c1cc(C#N)cc(C2(C3CCC3)C(C#N)=C(N)Oc3[nH]nc(C)c32)c1 (stereo not drawn) [Compound 2.658] |
| < 10 | Cc1n[nH]c2c1C(c1cc(C#N)cc(N(C)C(=O)CCCC#N)c1)(C1CCC1)C(C#N)=C(N)O2 (stereo not drawn) [Compound 2.659] |
| < 10 | Cc1n[nH]c2c1C(c1cc(C#N)cc(N(C)Cc3ccccc3)c1)(C1CCC1)C(C#N)=C(N)O2 (stereo not drawn) [Compound 2.660] |
| < 10 | Cc1n[nH]c2c1C(c1cc(C#N)cc(N(C)C(=O)CCC#N)c1)(C1CCC1)C(C#N)=C(N)O2 (stereo not drawn) [Compound 2.661] |
| < 10 | Cc1n[nH]c2c1C(c1cc(Cl)cc(SCC#N)c1)(C1CCC1)C(C#N)=C(N)O2 (stereo not drawn) [Compound 2.665] |
| < 10 | COCCOCC(=O)N(C)c1cc(C#N)cc(C2(C(C)C)C(C#N)=C(N)Oc3[nH]nc(C)c32)c1 (stereo not drawn) [Compound 2.666] |

Same assay, conditions: Table 2; values given as upper bounds

| Compound | EC50 [nM] |
| --- | --- |
| Cc1n[nH]c2c1C(c1ccc(C(=O)O)c(Cl)c1)(C1CCC1)C(C#N)=C(N)O2 (stereo not drawn) [Compound 2.594] | < 1000 |
| Cc1n[nH]c2c1C(c1cc(Cl)cc(-c3ccc(NS(=O)(=O)C(F)(F)F)cc3)c1)(C1CCC1)C(C#N)=C(N)O2 (stereo not drawn) [Compound 2.595] | < 10 |
| Cc1n[nH]c2c1C(c1cc(Cl)cc(Oc3cc(F)c(O)c(F)c3)c1)(C1CCC1)C(C#N)=C(N)O2 (stereo not drawn) [Compound 2.596] | < 10 |
| Cc1n[nH]c2c1C(c1cc(Cl)cc(Oc3ccc(O)c(C(F)(F)F)c3)c1)(C1CCC1)C(C#N)=C(N)O2 (stereo not drawn) [Compound 2.597] | < 100 |
| Cc1n[nH]c2c1C(c1cc(C#N)cc(N(C)C(=O)C(C)C)c1)(C1CCC1)C(C#N)=C(N)O2 (stereo not drawn) [Compound 2.613] | < 10 |
| CCCCC(=O)N(C)c1cc(C#N)cc(C2(C3CCC3)C(C#N)=C(N)Oc3[nH]nc(C)c32)c1 (stereo not drawn) [Compound 2.614] | < 10 |
| COc1ccc(C2(C(C)(C)F)C(C#N)=C(N)Oc3[nH]nc(C)c32)cc1Cl (stereo not drawn) [Compound 2.620] | < 10 |
| Cc1n[nH]c2c1C(c1cc(C#N)cc(OCC(=O)O)c1)(C1CCC1)C(C#N)=C(N)O2 (stereo not drawn) [Compound 2.625] | < 100 |
| Cc1n[nH]c2c1C(c1cc(C#N)cc(N(C)C(=O)CCC(=O)O)c1)(C1CCC1)C(C#N)=C(N)O2 (stereo not drawn) [Compound 2.632] | < 10 |
| Cc1n[nH]c2c1C(c1cc(C#N)cc(N(C)C(=O)c3cccc(C(=O)O)c3)c1)(C1CCC1)C(C#N)=C(N)O2 (stereo not drawn) [Compound 2.633] | < 100 |
| Cc1n[nH]c2c1C(c1cc(C#N)cc(N(C)C(=O)c3ccc(C(=O)O)cc3)c1)(C1CCC1)C(C#N)=C(N)O2 (stereo not drawn) [Compound 2.634] | < 100 |
| Cc1n[nH]c2c1C(c1cc(C#N)cc(N(C)C(=O)CCCC(=O)O)c1)(C1CCC1)C(C#N)=C(N)O2 (stereo not drawn) [Compound 2.636] | < 10 |
| Cc1n[nH]c2c1C(c1ccc(CCc3nnn[nH]3)c(Cl)c1)(C1CCC1)C(C#N)=C(N)O2 (stereo not drawn) [Compound 2.637] | < 10 |
| Cc1n[nH]c2c1C(c1ccc(OCc3nnn[nH]3)c(Cl)c1)(C1CCC1)C(C#N)=C(N)O2 (stereo not drawn) [Compound 2.638] | < 10 |
| Cc1n[nH]c2c1C(c1ccc(Cc3nnn[nH]3)c(Cl)c1)(C1CCC1)C(C#N)=C(N)O2 (stereo not drawn) [Compound 2.639] | < 10 |
| Cc1n[nH]c2c1C(c1cc(C#N)cc(-c3ccc(C(=O)O)s3)c1)(C1CCC1)C(C#N)=C(N)O2 (stereo not drawn) [Compound 2.640] | < 10 |
| Cc1n[nH]c2c1C(c1cc(C#N)cc(-c3cc(OC(F)(F)F)cc(C(=O)O)c3)c1)(C1CCC1)C(C#N)=C(N)O2 (stereo not drawn) [Compound 2.643] | < 10 |
| Cc1n[nH]c2c1C(c1cc(C#N)cc(-c3cc(C(=O)O)cc(C(F)(F)F)c3)c1)(C1CCC1)C(C#N)=C(N)O2 (stereo not drawn) [Compound 2.644] | < 10 |
| Cc1n[nH]c2c1C(c1ccc(OCCC#N)c(Cl)c1)(C1CCC1)C(C#N)=C(N)O2 (stereo not drawn) [Compound 2.645] | < 10 |
| Cc1n[nH]c2c1C(c1ccc(OCCc3nnn[nH]3)c(Cl)c1)(C1CCC1)C(C#N)=C(N)O2 (stereo not drawn) [Compound 2.646] | < 10 |
| Cc1n[nH]c2c1C(c1ccc(CCC#N)c(C#N)c1)(C1CCC1)C(C#N)=C(N)O2 (stereo not drawn) [Compound 2.647] | < 10 |
| Cc1n[nH]c2c1C(c1cc(CNC(=O)CCC(=O)O)cc(C(F)(F)F)c1)(C1CCC1)C(C#N)=C(N)O2 (stereo not drawn) [Compound 2.649] | < 10 |
| Cc1n[nH]c2c1C(c1cc(Cl)cc(Cl)c1)(C1CC(F)(F)C1)C(C#N)=C(N)O2 (stereo not drawn) [Compound 2.652] | < 10 |

Next, values leading:

| EC50 [nM] | Compound |
| --- | --- |
| < 10 | CCc1n[nH]c2c1C(CC)(c1cc(C#N)cc(C(F)(F)F)c1)C(C#N)=C(N)O2 (stereo not drawn) [Compound 2.574] |
| < 10 | CCCC1(c2cc(C#N)cc(C(F)(F)F)c2)C(C#N)=C(N)Oc2[nH]nc(CC)c21 (stereo not drawn) [Compound 2.575] |
| < 100 | CCc1n[nH]c2c1C(CC)(c1cc(Br)cc(C#N)c1)C(C#N)=C(N)O2 (stereo not drawn) [Compound 2.576] |
| < 100 | CCCC1(c2cc(Cl)cc(C#N)c2)C(C#N)=C(N)Oc2[nH]nc(CC)c21 (stereo not drawn) [Compound 2.577] |
| < 100 | CCCC1(c2cc(Br)cc(C#N)c2)C(C#N)=C(N)Oc2[nH]nc(CC)c21 (stereo not drawn) [Compound 2.578] |
| < 100 | CCCC1(c2cc(C#N)cc(C#N)c2)C(C#N)=C(N)Oc2[nH]nc(CC)c21 (stereo not drawn) [Compound 2.579] |
| < 100 | CCC1(c2cc(Cl)cc(C#N)c2)C(C#N)=C(N)Oc2[nH]nc(C(C)C)c21 (stereo not drawn) [Compound 2.580] |
| < 100 | CCC1(c2cc(C#N)cc(C(F)(F)F)c2)C(C#N)=C(N)Oc2[nH]nc(C(C)C)c21 (stereo not drawn) [Compound 2.581] |
| < 10 | CCCC1(c2cc(C#N)cc(C(F)(F)F)c2)C(C#N)=C(N)Oc2[nH]nc(C(C)C)c21 (stereo not drawn) [Compound 2.582] |
| < 10 | CCC1(c2cc(Br)cc(C#N)c2)C(C#N)=C(N)Oc2[nH]nc(C(C)C)c21 (stereo not drawn) [Compound 2.583] |
| < 10 | CCCC1(c2cc(Cl)cc(C#N)c2)C(C#N)=C(N)Oc2[nH]nc(C(C)C)c21 (stereo not drawn) [Compound 2.584] |
| < 100 | CCCC1(c2cc(Br)cc(C#N)c2)C(C#N)=C(N)Oc2[nH]nc(C(C)C)c21 (stereo not drawn) [Compound 2.585] |
| < 1000 | CCCC1(c2cc(C#N)cc(C#N)c2)C(C#N)=C(N)Oc2[nH]nc(C(C)C)c21 (stereo not drawn) [Compound 2.586] |
| < 1000 | CCC1(c2cc(Cl)cc(C#N)c2)C(C#N)=C(N)Oc2[nH]nc(COC)c21 (stereo not drawn) [Compound 2.587] |
| < 100 | CCC1(c2cc(C#N)cc(C(F)(F)F)c2)C(C#N)=C(N)Oc2[nH]nc(COC)c21 (stereo not drawn) [Compound 2.588] |
| < 100 | CCCC1(c2cc(C#N)cc(C(F)(F)F)c2)C(C#N)=C(N)Oc2[nH]nc(COC)c21 (stereo not drawn) [Compound 2.589] |
| < 1000 | CCC1(c2cc(Br)cc(C#N)c2)C(C#N)=C(N)Oc2[nH]nc(COC)c21 (stereo not drawn) [Compound 2.590] |
| < 10000 | CCCC1(c2cc(Cl)cc(C#N)c2)C(C#N)=C(N)Oc2[nH]nc(COC)c21 (stereo not drawn) [Compound 2.591] |
| < 1000 | CCCC1(c2cc(Br)cc(C#N)c2)C(C#N)=C(N)Oc2[nH]nc(COC)c21 (stereo not drawn) [Compound 2.592] |
| < 10000 | CCCC1(c2cc(C#N)cc(C#N)c2)C(C#N)=C(N)Oc2[nH]nc(COC)c21 (stereo not drawn) [Compound 2.593] |

| EC50 [nM] | Compound |
| --- | --- |
| < 1000 | CCC1(c2cc(Cl)cc(C#N)c2)C(C#N)=C(N)Oc2[nH]nc(OC)c21 (stereo not drawn) [Compound 2.598] |
| < 1000 | CCC1(c2cc(C#N)cc(C(F)(F)F)c2)C(C#N)=C(N)Oc2[nH]nc(OC)c21 (stereo not drawn) [Compound 2.599] |
| < 1000 | CCCC1(c2cc(C#N)cc(C(F)(F)F)c2)C(C#N)=C(N)Oc2[nH]nc(OC)c21 (stereo not drawn) [Compound 2.600] |
| < 1000 | CCC1(c2cc(Br)cc(C#N)c2)C(C#N)=C(N)Oc2[nH]nc(OC)c21 (stereo not drawn) [Compound 2.601] |
| < 10000 | CCCC1(c2cc(Cl)cc(C#N)c2)C(C#N)=C(N)Oc2[nH]nc(OC)c21 (stereo not drawn) [Compound 2.602] |
| < 1000 | CCCC1(c2cc(Br)cc(C#N)c2)C(C#N)=C(N)Oc2[nH]nc(OC)c21 (stereo not drawn) [Compound 2.603] |
| < 1000 | CCCC1(c2cc(C#N)cc(C#N)c2)C(C#N)=C(N)Oc2[nH]nc(OC)c21 (stereo not drawn) [Compound 2.604] |
| < 10 | CCC1(c2cc(Cl)cc(C#N)c2)C(C#N)=C(N)Oc2[nH]nc(C(F)F)c21 (stereo not drawn) [Compound 2.605] |
| < 10 | CCC1(c2cc(C#N)cc(C(F)(F)F)c2)C(C#N)=C(N)Oc2[nH]nc(C(F)F)c21 (stereo not drawn) [Compound 2.606] |
| < 10 | CCC1(c2cc(Br)cc(C#N)c2)C(C#N)=C(N)Oc2[nH]nc(C(F)F)c21 (stereo not drawn) [Compound 2.607] |
| < 10 | CCCC1(c2cc(Cl)cc(C#N)c2)C(C#N)=C(N)Oc2[nH]nc(C(F)F)c21 (stereo not drawn) [Compound 2.608] |
| < 100 | CCCC1(c2cc(Br)cc(C#N)c2)C(C#N)=C(N)Oc2[nH]nc(C(F)F)c21 (stereo not drawn) [Compound 2.609] |
| < 100 | CCCC1(c2cc(C#N)cc(C#N)c2)C(C#N)=C(N)Oc2[nH]nc(C(F)F)c21 (stereo not drawn) [Compound 2.610] |
| < 100 | Cc1n[nH]c2c1C(c1cc(O)cc(C#N)c1)(C1CCC1)C(C#N)=C(N)O2 (stereo not drawn) [Compound 2.626] |
| < 100 | Cc1n[nH]c2c1C(c1cc(C#N)cc(CC(=O)O)c1)(C1CCC1)C(C#N)=C(N)O2 (stereo not drawn) [Compound 2.627] |
| < 10 | Cc1n[nH]c2c1C(c1cc(C#N)cc(N(C)CCC#N)c1)(C1CCC1)C(C#N)=C(N)O2 (stereo not drawn) [Compound 2.629] |
| < 10 | Cc1n[nH]c2c1C(c1cc(C#N)cc(N(C)CC#N)c1)(C1CCC1)C(C#N)=C(N)O2 (stereo not drawn) [Compound 2.631] |
| < 10 | Cc1n[nH]c2c1C(c1cc(C#N)cc(CCC#N)c1)(C1CCC1)C(C#N)=C(N)O2 (stereo not drawn) [Compound 2.650] |
| < 10 | Cc1n[nH]c2c1C(c1cc(Cl)cc(Cl)c1)(C(C)F)C(C#N)=C(N)O2 (stereo not drawn) [Compound 2.651] |
